Measured values published in ChEMBL document CHEMBL1201862, “PubChem BioAssay data set” (2004).
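Interpolation was linear, between the two tested concentrations surrounding the appropriate level; five concentrations were tested over 48 hours in 96-well plates. GI50 is the concentration that inhibits growth by half.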 Calls of active or inactive are those of the source. No stated cut-off is given here; in the data, active = GI50 up to about 1.1 µM and inactive = higher.

Experiments:
Test in all cases: growth of human tumour cells (NCI), 48 h
786-0 = tested on: 786-0
A498 = tested on: A498
A549 = tested on: A549
ACHN = tested on: ACHN
BT-549 = tested on: BT-549
CAKI-1 = tested on: CAKI-1
CCRF-CEM = tested on: CCRF-CEM
COLO 205 = tested on: COLO 205
DU-145 = tested on: DU-145
EKVX = tested on: EKVX
HCC 2998 = tested on: HCC 2998
HCT-116 = tested on: HCT-116
HCT-15 = tested on: HCT-15
HL-60 = tested on: HL-60
HOP-62 = tested on: HOP-62
HOP-92 = tested on: HOP-92
HT-29 = tested on: HT-29
Hs-578T = tested on: Hs-578T
IGROV-1 = tested on: IGROV-1
K562 = tested on: K562
KM12 = tested on: KM12
LOX IMVI = tested on: LOX IMVI
M14 = tested on: M14
MCF7 = tested on: MCF7
MDA-MB-231 = tested on: MDA-MB-231
MDA-MB-435 = tested on: MDA-MB-435
MDA-N = tested on: MDA-N
MOLT-4 = tested on: MOLT-4
Malme-3M = tested on: Malme-3M
NCI-H226 = tested on: NCI-H226
NCI-H23 = tested on: NCI-H23
NCI-H460 = tested on: NCI-H460
NCI-H522 = tested on: NCI-H522
NCI/ADR-RES = tested on: NCI/ADR-RES
OVCAR-3 = tested on: OVCAR-3
OVCAR-4 = tested on: OVCAR-4
OVCAR-5 = tested on: OVCAR-5
OVCAR-8 = tested on: OVCAR-8
PC-3 = tested on: PC-3
RPMI-8226 = tested on: RPMI-8226
RXF 393 = tested on: RXF 393
SF-268 = tested on: SF-268
SF-295 = tested on: SF-295
SF-539 = tested on: SF-539
SK-MEL-28 = tested on: SK-MEL-28
SK-MEL-2 = tested on: SK-MEL-2
SK-MEL-5 = tested on: SK-MEL-5
SN12C = tested on: SN12C
SNB-19 = tested on: SNB-19
SNB-75 = tested on: SNB-75
SR = tested on: SR
SW-620 = tested on: SW-620
T47D = tested on: T47D
TK-10 = tested on: TK-10
U-251 = tested on: U-251
UACC-257 = tested on: UACC-257
UACC-62 = tested on: UACC-62
UO-31 = tested on: UO-31
SK-OV-3 = tested on: SK-OV-3

## COc1ccc(OC)c2nc3c(C(=O)NCCN(C)C)cccc3nc12
786-0
  GI50: 3.05 µM (inactive)
A498
  GI50: 13.9 µM (inactive)
A549
  GI50: 3.37 µM (inactive)
ACHN
  GI50: 1.98 µM (inactive)
BT-549
  GI50: 10.8 µM (inactive)
CAKI-1
  GI50: 3.22 µM (inactive)
CCRF-CEM
  GI50: 2.29 µM (inactive)
COLO 205
  GI50: 2.37 µM (inactive)
DU-145
  GI50: 5.21 µM (inactive)
EKVX
  GI50: 6.58 µM (inactive)
HCC 2998
  GI50: 5.77 µM (inactive)
HCT-116
  GI50: 1.79 µM (inactive)
HCT-15
  GI50: 4.74 µM
HL-60
  GI50: 3.18 µM (inactive)
HOP-62
  GI50: 4.55 µM (inactive)
HOP-92
  GI50: 4.18 µM (inactive)
HT-29
  GI50: 1.8 µM (inactive)
Hs-578T
  GI50: 5.89 µM (inactive)
IGROV-1
  GI50: 4.59 µM (inactive)
K562
  GI50: 3 µM (inactive)
KM12
  GI50: 4.2 µM (inactive)
LOX IMVI
  GI50: 1.78 µM (inactive)
M14
  GI50: 4.69 µM (inactive)
MCF7
  GI50: 3.48 µM (inactive)
MDA-MB-231
  GI50: 2.94 µM (inactive)
MDA-MB-435
  GI50: 5.11 µM (inactive)
MDA-N
  GI50: 4.52 µM (inactive)
MOLT-4
  GI50: 2.8 µM (inactive)
Malme-3M
  GI50: 8.65 µM (inactive)
NCI-H226
  GI50: 4.66 µM (inactive)
NCI-H23
  GI50: 3.7 µM (inactive)
NCI-H460
  GI50: 3.24 µM (inactive)
NCI-H522
  GI50: 2.61 µM (inactive)
NCI/ADR-RES
  GI50: 5.25 µM (inactive)
OVCAR-3
  GI50: 4.93 µM (inactive)
OVCAR-4
  GI50: 3.09 µM (inactive)
OVCAR-5
  GI50: 10.3 µM (inactive)
OVCAR-8
  GI50: 2.54 µM (inactive)
PC-3
  GI50: 4.04 µM (inactive)
RPMI-8226
  GI50: 2.84 µM (inactive)
RXF 393
  GI50: 5.85 µM (inactive)
SF-268
  GI50: 3.94 µM (inactive)
SF-295
  GI50: 3.99 µM (inactive)
SF-539
  GI50: 4.5 µM (inactive)
SK-MEL-28
  GI50: 7.83 µM (inactive)
SK-MEL-2
  GI50: 8.45 µM (inactive)
SK-MEL-5
  GI50: 3.67 µM (inactive)
SN12C
  GI50: 4.11 µM (inactive)
SNB-19
  GI50: 6.76 µM (inactive)
SNB-75
  GI50: 11.7 µM (inactive)
SR
  GI50: 2.17 µM (inactive)
SW-620
  GI50: 1.77 µM (inactive)
T47D
  GI50: 14.1 µM (inactive)
TK-10
  GI50: 4.63 µM (inactive)
U-251
  GI50: 4.21 µM (inactive)
UACC-257
  GI50: 3.88 µM (inactive)
UACC-62
  GI50: 7.71 µM (inactive)
UO-31
  GI50: 2.72 µM (inactive)

## COC(=O)C(CCSC)NC(=O)Cc1ccc(C(=O)c2ccccc2)cc1 (stereo not drawn)
786-0
  GI50: > 100 µM (inactive)
A498
  GI50: > 100 µM (inactive)
A549
  GI50: 38.4 µM (inactive)
ACHN
  GI50: > 100 µM (inactive)
BT-549
  GI50: 29 µM (inactive)
CAKI-1
  GI50: 70.3 µM (inactive)
CCRF-CEM
  GI50: 42.5 µM (inactive)
COLO 205
  GI50: > 100 µM (inactive)
DU-145
  GI50: 86.9 µM (inactive)
EKVX
  GI50: 39.2 µM (inactive)
HCC 2998
  GI50: > 100 µM (inactive)
HCT-116
  GI50: 39.7 µM (inactive)
HCT-15
  GI50: 36.1 µM
HL-60
  GI50: 32.7 µM (inactive)
HOP-62
  GI50: 88.1 µM (inactive)
HOP-92
  GI50: 41.8 µM (inactive)
HT-29
  GI50: 25.8 µM (inactive)
Hs-578T
  GI50: 33.1 µM (inactive)
IGROV-1
  GI50: 64.3 µM (inactive)
K562
  GI50: 37.8 µM (inactive)
KM12
  GI50: 25.9 µM (inactive)
LOX IMVI
  GI50: 55.7 µM (inactive)
M14
  GI50: 35.5 µM (inactive)
MCF7
  GI50: 47.3 µM (inactive)
MDA-MB-231
  GI50: 37.3 µM (inactive)
MDA-MB-435
  GI50: 29.1 µM (inactive)
MDA-N
  GI50: 14.9 µM (inactive)
MOLT-4
  GI50: 55 µM (inactive)
Malme-3M
  GI50: > 100 µM (inactive)
NCI-H226
  GI50: 78.5 µM (inactive)
NCI-H23
  GI50: 44.8 µM (inactive)
NCI-H460
  GI50: 34.7 µM (inactive)
NCI-H522
  GI50: 57.8 µM (inactive)
NCI/ADR-RES
  GI50: 26.7 µM (inactive)
OVCAR-3
  GI50: 67.6 µM (inactive)
OVCAR-4
  GI50: > 100 µM (inactive)
OVCAR-5
  GI50: > 100 µM (inactive)
OVCAR-8
  GI50: 73.3 µM (inactive)
PC-3
  GI50: 56.8 µM (inactive)
RPMI-8226
  GI50: 46.5 µM (inactive)
RXF 393
  GI50: > 100 µM (inactive)
SF-268
  GI50: > 100 µM (inactive)
SF-295
  GI50: 42.5 µM (inactive)
SK-MEL-28
  GI50: > 100 µM (inactive)
SK-MEL-2
  GI50: 48.6 µM (inactive)
SK-MEL-5
  GI50: 32.5 µM (inactive)
SK-OV-3
  GI50: 40.4 µM (inactive)
SN12C
  GI50: 50.1 µM (inactive)
SNB-19
  GI50: 82.6 µM (inactive)
SNB-75
  GI50: 40.6 µM (inactive)
SR
  GI50: 31.3 µM (inactive)
SW-620
  GI50: 42.4 µM (inactive)
T47D
  GI50: 59.2 µM (inactive)
U-251
  GI50: 34.6 µM (inactive)
UACC-257
  GI50: > 100 µM (inactive)
UACC-62
  GI50: 51.2 µM (inactive)
UO-31
  GI50: 53.7 µM (inactive)

## C1CSC2=C(S1)SC1=C(S2)SC(=C2SC3=C(SC4=C(SCCS4)S3)S2)S1
786-0
  GI50: > 100 µM (inactive)
A498
  GI50: > 100 µM (inactive)
A549
  GI50: > 100 µM (inactive)
ACHN
  GI50: > 100 µM (inactive)
BT-549
  GI50: > 100 µM (inactive)
CAKI-1
  GI50: > 100 µM (inactive)
CCRF-CEM
  GI50: > 100 µM (inactive)
COLO 205
  GI50: > 100 µM (inactive)
DU-145
  GI50: > 100 µM (inactive)
EKVX
  GI50: > 100 µM (inactive)
HCC 2998
  GI50: > 100 µM (inactive)
HCT-116
  GI50: > 100 µM (inactive)
HCT-15
  GI50: > 100 µM
HL-60
  GI50: 23.9 µM (inactive)
HOP-62
  GI50: > 100 µM (inactive)
HOP-92
  GI50: > 100 µM (inactive)
HT-29
  GI50: > 100 µM (inactive)
Hs-578T
  GI50: > 100 µM (inactive)
IGROV-1
  GI50: > 100 µM (inactive)
K562
  GI50: > 100 µM (inactive)
KM12
  GI50: > 100 µM (inactive)
M14
  GI50: > 100 µM (inactive)
MCF7
  GI50: > 100 µM (inactive)
MDA-MB-231
  GI50: > 100 µM (inactive)
MDA-MB-435
  GI50: > 100 µM (inactive)
MDA-N
  GI50: > 100 µM (inactive)
MOLT-4
  GI50: > 100 µM (inactive)
Malme-3M
  GI50: > 100 µM (inactive)
NCI-H226
  GI50: > 100 µM (inactive)
NCI-H23
  GI50: > 100 µM (inactive)
NCI-H460
  GI50: > 100 µM (inactive)
NCI-H522
  GI50: > 100 µM (inactive)
NCI/ADR-RES
  GI50: > 100 µM (inactive)
OVCAR-3
  GI50: > 100 µM (inactive)
OVCAR-4
  GI50: > 100 µM (inactive)
OVCAR-5
  GI50: > 100 µM (inactive)
OVCAR-8
  GI50: > 100 µM (inactive)
PC-3
  GI50: > 100 µM (inactive)
RPMI-8226
  GI50: > 100 µM (inactive)
RXF 393
  GI50: > 100 µM (inactive)
SF-268
  GI50: > 100 µM (inactive)
SF-295
  GI50: > 100 µM (inactive)
SF-539
  GI50: > 100 µM (inactive)
SK-MEL-28
  GI50: > 100 µM (inactive)
SK-MEL-2
  GI50: 74.1 µM (inactive)
SK-MEL-5
  GI50: > 100 µM (inactive)
SK-OV-3
  GI50: > 100 µM (inactive)
SN12C
  GI50: > 100 µM (inactive)
SNB-19
  GI50: > 100 µM (inactive)
SNB-75
  GI50: 37.7 µM (inactive)
SR
  GI50: 87.7 µM (inactive)
SW-620
  GI50: > 100 µM (inactive)
T47D
  GI50: > 100 µM (inactive)
TK-10
  GI50: > 100 µM (inactive)
U-251
  GI50: > 100 µM (inactive)
UACC-257
  GI50: > 100 µM (inactive)
UACC-62
  GI50: > 100 µM (inactive)
UO-31
  GI50: > 100 µM (inactive)
